# Laboratory results taken from ChEMBL document CHEMBL5653631, “A Potent and Selective ULK1 Inhibitor Suppresses Autophagy and Sensitizes Cancer Cells to Nutrient Stress” (iScience, 2018).
# How the values were obtained:
# [1] = target: Serine/threonine-protein kinase MRCK beta (Homo sapiens) (UniProt Q9Y5S2); test: Inhibition of human recombinant MRCKb at 40 nM in presence of ATP by radiometric assay relative to control
# [2] = target: T1, Mitogen-activated protein kinase kinase kinase 2 (Homo sapiens) (UniProt Q9Y2U5); test: Inhibition of human recombinant MAP3K2 at 40 nM related to control ULK1
# T1 sequence (whole entry): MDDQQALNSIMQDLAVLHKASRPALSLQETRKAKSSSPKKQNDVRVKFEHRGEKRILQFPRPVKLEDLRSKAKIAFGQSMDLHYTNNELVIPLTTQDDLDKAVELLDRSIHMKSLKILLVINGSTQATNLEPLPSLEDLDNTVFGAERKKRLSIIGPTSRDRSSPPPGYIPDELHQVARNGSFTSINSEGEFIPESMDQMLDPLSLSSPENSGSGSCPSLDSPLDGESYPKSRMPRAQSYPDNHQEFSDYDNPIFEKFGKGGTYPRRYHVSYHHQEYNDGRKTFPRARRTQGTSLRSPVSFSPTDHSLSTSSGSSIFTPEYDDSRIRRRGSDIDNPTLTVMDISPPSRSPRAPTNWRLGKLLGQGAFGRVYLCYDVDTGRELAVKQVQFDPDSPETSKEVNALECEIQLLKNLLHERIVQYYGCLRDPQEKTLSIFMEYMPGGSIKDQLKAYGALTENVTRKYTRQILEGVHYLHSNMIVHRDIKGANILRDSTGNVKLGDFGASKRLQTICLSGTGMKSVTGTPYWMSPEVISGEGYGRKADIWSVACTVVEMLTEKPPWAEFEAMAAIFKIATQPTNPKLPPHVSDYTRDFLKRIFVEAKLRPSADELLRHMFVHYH
# [3] = target: Misshapen-like kinase 1 (Homo sapiens) (UniProt Q8N4C8); test: Inhibition of human recombinant MINK at 40 nM in presence of ATP by radiometric assay relative to control
# Sequence of Misshapen-like kinase 1 (Homo sapiens) (Q8N4C8 whole entry, looked up): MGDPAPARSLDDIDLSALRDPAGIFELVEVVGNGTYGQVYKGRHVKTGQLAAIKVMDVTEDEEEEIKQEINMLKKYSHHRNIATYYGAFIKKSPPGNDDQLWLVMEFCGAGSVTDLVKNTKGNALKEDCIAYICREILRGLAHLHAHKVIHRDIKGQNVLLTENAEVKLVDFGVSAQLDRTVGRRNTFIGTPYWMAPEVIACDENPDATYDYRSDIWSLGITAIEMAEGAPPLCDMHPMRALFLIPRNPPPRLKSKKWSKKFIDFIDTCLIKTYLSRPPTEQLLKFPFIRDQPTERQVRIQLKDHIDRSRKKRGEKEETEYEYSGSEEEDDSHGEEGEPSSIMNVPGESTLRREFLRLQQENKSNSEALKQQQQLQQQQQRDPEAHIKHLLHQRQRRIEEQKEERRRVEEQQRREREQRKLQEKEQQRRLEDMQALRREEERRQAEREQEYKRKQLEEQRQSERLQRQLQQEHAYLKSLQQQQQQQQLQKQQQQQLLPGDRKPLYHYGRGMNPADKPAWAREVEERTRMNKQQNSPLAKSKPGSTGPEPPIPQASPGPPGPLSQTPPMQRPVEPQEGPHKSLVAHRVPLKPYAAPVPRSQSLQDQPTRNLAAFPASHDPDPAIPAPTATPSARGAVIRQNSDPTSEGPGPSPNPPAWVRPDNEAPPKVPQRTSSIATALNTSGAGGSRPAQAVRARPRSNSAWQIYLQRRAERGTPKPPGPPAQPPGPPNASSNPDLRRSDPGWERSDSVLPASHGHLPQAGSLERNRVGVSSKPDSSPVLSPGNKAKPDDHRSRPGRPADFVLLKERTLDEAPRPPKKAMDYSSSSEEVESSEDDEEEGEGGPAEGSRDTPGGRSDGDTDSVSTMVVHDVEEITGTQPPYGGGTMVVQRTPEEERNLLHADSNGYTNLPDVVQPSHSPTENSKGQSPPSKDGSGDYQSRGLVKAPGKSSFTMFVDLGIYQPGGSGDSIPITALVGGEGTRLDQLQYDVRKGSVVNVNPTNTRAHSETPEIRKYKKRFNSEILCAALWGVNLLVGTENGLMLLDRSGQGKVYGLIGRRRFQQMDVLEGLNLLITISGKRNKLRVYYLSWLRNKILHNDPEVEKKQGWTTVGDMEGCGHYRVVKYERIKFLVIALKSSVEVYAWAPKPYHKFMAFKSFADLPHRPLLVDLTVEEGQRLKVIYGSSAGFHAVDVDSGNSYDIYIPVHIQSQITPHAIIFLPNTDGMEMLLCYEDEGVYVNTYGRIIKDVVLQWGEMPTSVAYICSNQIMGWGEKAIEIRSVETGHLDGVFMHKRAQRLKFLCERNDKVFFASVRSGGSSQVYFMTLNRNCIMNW
# [4] = target: Focal adhesion kinase 1 (Homo sapiens) (UniProt Q05397); test: Inhibition of human recombinant FAK at 40 nM in presence of ATP by radiometric assay relative to control
# Sequence of Focal adhesion kinase 1 (Homo sapiens) (Q05397 2-1052 limits assumed): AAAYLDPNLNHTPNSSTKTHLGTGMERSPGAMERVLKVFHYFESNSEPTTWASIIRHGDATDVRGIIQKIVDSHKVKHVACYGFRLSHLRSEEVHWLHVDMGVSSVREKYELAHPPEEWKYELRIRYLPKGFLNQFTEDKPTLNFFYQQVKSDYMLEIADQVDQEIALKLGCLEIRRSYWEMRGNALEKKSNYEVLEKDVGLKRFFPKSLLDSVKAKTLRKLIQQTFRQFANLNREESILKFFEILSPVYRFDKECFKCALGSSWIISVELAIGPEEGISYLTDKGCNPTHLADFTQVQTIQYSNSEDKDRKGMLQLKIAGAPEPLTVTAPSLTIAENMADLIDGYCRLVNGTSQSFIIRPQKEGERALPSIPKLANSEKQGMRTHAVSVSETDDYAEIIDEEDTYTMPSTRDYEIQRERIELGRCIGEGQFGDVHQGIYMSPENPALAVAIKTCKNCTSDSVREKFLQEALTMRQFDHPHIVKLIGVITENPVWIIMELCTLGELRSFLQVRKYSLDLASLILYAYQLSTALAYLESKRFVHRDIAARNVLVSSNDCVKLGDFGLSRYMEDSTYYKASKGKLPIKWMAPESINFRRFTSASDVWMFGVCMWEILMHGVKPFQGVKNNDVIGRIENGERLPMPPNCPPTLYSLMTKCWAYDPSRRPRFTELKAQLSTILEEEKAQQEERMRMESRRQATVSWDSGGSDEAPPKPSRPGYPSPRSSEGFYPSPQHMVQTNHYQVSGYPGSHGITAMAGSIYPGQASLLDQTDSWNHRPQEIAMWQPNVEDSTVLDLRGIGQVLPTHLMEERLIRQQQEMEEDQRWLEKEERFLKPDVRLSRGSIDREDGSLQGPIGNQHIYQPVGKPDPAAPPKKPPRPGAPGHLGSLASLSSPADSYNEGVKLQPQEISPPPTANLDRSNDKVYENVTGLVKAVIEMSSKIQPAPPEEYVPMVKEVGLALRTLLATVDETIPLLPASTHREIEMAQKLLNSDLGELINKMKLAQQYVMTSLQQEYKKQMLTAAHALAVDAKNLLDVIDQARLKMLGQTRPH
# [5] = target: T2, TGF-beta receptor type-1 (Homo sapiens) (UniProt P36897); test: Inhibition of human recombinant TGFbR1 at 15 nM related to control ULK1
# T2 sequence (whole entry): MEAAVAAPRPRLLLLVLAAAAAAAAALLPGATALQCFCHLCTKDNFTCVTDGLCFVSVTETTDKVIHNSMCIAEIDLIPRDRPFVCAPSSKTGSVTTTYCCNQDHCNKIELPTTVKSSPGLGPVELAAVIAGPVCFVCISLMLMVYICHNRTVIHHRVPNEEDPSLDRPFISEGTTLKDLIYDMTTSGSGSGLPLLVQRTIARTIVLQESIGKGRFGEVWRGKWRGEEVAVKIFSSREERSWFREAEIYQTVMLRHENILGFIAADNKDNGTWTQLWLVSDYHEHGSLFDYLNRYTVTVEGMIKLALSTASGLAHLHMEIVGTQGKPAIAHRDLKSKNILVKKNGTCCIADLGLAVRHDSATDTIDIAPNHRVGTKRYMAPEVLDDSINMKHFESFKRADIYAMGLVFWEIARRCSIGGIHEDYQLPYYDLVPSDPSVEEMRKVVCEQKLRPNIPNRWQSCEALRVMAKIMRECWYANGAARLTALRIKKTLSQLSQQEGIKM
# [6] = target: T3, Inhibitor of nuclear factor kappa-B kinase subunit alpha (Homo sapiens) (UniProt O15111); test: Inhibition of human recombinant IKKa at 15 nM in presence of ATP by radiometric assay relative to control
# T3 sequence (whole entry): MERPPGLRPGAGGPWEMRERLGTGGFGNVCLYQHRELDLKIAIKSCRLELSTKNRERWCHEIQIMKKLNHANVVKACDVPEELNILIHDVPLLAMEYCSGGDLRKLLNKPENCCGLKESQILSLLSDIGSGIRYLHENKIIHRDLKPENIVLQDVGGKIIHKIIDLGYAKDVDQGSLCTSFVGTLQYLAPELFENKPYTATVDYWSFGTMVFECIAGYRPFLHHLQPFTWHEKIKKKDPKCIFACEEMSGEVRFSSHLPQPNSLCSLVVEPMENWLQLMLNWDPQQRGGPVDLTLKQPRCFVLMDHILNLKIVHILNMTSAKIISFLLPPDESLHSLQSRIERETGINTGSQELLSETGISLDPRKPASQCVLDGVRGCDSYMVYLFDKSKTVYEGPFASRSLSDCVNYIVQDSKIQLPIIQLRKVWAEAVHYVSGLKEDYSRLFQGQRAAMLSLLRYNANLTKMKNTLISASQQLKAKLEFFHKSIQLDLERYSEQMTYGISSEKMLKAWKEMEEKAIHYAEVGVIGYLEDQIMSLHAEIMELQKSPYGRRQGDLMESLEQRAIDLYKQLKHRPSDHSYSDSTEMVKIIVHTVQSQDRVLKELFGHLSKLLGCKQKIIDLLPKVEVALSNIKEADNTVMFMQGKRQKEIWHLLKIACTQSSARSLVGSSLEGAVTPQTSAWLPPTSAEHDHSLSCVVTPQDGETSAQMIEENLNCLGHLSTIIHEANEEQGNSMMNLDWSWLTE
# [7] = target: G protein-coupled receptor kinase 5 (Homo sapiens) (UniProt P34947); test: Inhibition of human recombinant GPRK5 at 15 nM related to control ULK1
# Sequence of G protein-coupled receptor kinase 5 (Homo sapiens) (P34947 whole entry, looked up): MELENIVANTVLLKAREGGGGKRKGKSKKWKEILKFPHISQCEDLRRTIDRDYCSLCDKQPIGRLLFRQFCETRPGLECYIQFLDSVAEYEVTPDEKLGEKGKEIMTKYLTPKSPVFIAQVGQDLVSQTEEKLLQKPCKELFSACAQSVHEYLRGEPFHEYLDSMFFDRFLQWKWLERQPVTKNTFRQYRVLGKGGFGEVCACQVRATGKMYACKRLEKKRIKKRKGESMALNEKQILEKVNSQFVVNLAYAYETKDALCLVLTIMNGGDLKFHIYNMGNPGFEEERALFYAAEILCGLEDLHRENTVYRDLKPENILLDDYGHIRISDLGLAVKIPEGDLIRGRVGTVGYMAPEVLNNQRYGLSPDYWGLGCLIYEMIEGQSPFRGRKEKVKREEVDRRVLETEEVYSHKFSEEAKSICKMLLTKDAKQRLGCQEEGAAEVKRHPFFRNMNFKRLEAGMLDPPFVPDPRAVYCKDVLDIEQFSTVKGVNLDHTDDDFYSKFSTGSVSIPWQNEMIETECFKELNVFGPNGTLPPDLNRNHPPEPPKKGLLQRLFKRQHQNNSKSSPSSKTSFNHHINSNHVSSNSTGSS
# [8] = target: Serine/threonine-protein kinase WNK1 (Homo sapiens) (UniProt Q9H4A3); test: Inhibition of human recombinant Wnk1 at 500 nM related to control ULK1
# [9] = target: Serine/threonine-protein kinase 24 (Homo sapiens) (UniProt Q9Y6E0); test: Inhibition of human recombinant MST3 at 500 nM in presence of ATP by radiometric assay relative to control
# Sequence of Serine/threonine-protein kinase 24 (Homo sapiens) (Q9Y6E0 whole entry, looked up): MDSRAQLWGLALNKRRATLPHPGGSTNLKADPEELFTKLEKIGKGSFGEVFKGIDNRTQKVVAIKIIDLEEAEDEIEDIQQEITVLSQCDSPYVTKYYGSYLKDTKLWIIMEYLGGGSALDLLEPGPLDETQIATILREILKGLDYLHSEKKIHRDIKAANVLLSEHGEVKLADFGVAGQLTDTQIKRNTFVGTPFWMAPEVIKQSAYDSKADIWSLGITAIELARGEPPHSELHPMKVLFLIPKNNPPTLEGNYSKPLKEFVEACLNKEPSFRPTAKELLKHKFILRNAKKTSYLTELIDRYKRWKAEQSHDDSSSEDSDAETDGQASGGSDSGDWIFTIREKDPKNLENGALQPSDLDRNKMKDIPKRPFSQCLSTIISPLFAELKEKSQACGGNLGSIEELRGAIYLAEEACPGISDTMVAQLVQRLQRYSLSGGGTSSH
# Sequence of Serine/threonine-protein kinase MRCK beta (Homo sapiens) (Q9Y5S2 whole entry): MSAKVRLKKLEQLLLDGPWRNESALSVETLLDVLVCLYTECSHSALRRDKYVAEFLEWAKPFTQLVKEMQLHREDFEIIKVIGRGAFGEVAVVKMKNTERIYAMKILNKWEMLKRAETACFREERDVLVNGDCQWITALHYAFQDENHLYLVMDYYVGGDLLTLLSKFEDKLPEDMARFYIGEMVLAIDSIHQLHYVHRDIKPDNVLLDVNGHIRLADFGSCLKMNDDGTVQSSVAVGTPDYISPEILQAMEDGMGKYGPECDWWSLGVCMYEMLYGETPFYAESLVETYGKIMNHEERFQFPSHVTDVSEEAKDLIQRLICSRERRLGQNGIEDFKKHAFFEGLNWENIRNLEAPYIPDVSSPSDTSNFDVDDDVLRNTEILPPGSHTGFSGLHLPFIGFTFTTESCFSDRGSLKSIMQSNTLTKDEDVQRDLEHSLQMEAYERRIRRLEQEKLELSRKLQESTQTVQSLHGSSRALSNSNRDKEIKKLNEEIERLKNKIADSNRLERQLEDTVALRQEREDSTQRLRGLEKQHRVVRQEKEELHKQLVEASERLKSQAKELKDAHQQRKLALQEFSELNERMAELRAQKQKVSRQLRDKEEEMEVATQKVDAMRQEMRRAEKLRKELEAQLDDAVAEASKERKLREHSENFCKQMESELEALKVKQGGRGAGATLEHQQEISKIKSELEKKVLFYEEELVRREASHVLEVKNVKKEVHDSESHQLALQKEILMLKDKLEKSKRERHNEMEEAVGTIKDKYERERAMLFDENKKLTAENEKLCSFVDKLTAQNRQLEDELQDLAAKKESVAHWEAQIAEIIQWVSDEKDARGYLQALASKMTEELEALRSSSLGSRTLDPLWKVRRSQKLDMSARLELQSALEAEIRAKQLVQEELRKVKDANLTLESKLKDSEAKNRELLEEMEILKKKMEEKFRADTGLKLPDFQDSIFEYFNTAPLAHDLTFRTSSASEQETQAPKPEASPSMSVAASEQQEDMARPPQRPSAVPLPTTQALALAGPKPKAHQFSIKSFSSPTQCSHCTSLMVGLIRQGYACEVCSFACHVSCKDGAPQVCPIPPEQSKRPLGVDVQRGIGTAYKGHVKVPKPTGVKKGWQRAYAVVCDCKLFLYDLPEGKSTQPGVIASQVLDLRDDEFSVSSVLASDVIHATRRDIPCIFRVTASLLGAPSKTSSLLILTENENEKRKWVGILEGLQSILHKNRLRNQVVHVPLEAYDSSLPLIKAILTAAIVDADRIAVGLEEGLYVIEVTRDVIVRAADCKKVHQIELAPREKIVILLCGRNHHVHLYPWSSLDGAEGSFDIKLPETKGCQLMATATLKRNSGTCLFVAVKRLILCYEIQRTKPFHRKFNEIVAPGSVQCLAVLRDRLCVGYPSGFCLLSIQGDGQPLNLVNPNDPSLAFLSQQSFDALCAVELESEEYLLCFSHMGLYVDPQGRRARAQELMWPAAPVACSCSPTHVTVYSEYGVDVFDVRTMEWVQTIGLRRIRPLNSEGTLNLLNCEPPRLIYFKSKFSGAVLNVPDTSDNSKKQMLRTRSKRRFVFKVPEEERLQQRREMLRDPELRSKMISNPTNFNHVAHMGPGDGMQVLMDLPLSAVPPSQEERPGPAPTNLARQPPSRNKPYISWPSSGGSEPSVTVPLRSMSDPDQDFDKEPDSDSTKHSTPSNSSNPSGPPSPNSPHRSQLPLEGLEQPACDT
smiles,measurement,setting,value
O=C(N[C@@H](C1CC1)C(F)(F)F)c1cc(-c2cnn3cc(-c4ccc(F)cc4)cnc23)cs1,inhibition,[1],5%
same,fold change (FC),[2],0
same,inhibition,[3],7%
same,inhibition,[4],0%
CC(C)[C@H](NC(=O)c1cc(-c2cnn3cc(-c4ccc(OCCN5CCCCC5)cc4)cnc23)cs1)C(F)(F)F,fold change (FC),[5],0.05
same,inhibition,[6],1%
same,fold change (FC),[7],0
CNC(=O)c1ccccc1Oc1nc(Nc2cc(OC)c(OC)c(OC)c2)ncc1Br,fold change (FC),[8],0
same,inhibition,[9],58%
